Data taken from patent US4091006A, “Esters of 3-hydroxyindone compounds” (priority 1975, dated 1978).

Key:
[1] = tested on: adults and nymphal stages of the two-spotted mite; assay: Mite Foliage Spray Test; type: in vivo, Tetranychus urticae (Koch); set-up: key: 1: no mortality; 3: an approximately 50% mortality; 5: 100% mortality; settings: 4 days
Description: (§1) The test procedures were as follows:
(§2) Compositions were rated on the basis of percent kill with a rating of 1 indicating no mortality; 3 signifying an approximately 50% mortality and 5 indicating 100% mortality at the indicated dosage.

[2] = tested on: egg of the two-spotted mite; assay: Mite Ovicide Test; type: in vivo, Tetranychus urticae (Koch); set-up: key to Mite Ova rating: 1: no mortality; 3: an approximately 50% mortality; 5: 100% mortality; settings: spray on eggs, 4 days
Description: as §1
The plants were allowed to dry thoroughly.
as §2

[3] = tested on: eggs of the two-spotted mite; assay: Fumigant toxicity, Method 1 (deposit in pie plate); type: in vivo; settings: deposit approx. 160 μg per square cm, 4 days
Procedure: (§3) Two methods were used to evaluate fumigant properties:
Method 1: Fifty mg. of each compound were dissolved in 5 ml. of acetone and poured into a 20 cm. (bottom diameter) Pyrex No. 210 pie plate. The acetone was allowed to evaporate leaving a deposit of approximately 160 μg. per square cm. The plate was then placed in the bottom of a 50 pound metal lard container (about 30 cm. in diameter and 34 cm. high). Two excised bean plants, held in a 250 ml. Erlenmeyer flask containing 100 ml. of tap water and infested with eggs of the two-spotted mite, were placed in the center of the pie plate. The container was held in the insectary (temperature 80±5° F., 50±5% R. H.) for four days before mortality determinations were made.

[4] = tested on: egg forms of the two-spotted mite; assay: Fumigant toxicity, Method 2 (treated plants near untreated infested plants); type: in vivo; settings: 500 ppm dip, 4 days
Procedure: as §3
Method 2: Excised bean plants infested with egg forms of the two-spotted mite were dipped in an aqueous preparation (500 ppm) of the test compound. The treated plants were transferred to 250 ml. Erlenmeyer flasks containing 100 ml. of tap water. Four flasks holding treated plants were evenly spaced around a similar flask in which were placed untreated mite-infested plants so that the leaves of the treated foliage were in close proximity (1-3 inches) to the untreated plants. Four days later mortality determinations were made.

[5] = tested on: Perennial rye grass, crabgrass, red root pigweed, mustard; assay: Preliminary Herbicide Seed Germination Test; settings: each rated 1 (no injury) to 5 (no seedlings emerged)
two-spotted mite = assay: Small scale field tests, mite control on Tendergreen bean plants; type: in vivo, Tetranychus urticae (Koch)
Procedure: Selected enol ester compositions were evaluated in small scale field tests to determine whether the excellent miticidal properties observed in greenhouse testing would be obtained under actual conditions of field use.
In Test I 500 ppm aqueous dispersions were prepared as described above. In tests II and III various dilutions of the test compounds ranging from 125 ppm to 1000 ppm were prepared and used. In each case the test dispersions were applied to a minimum of two replicate test plots measuring five feet in length and containing healthy young Tendergreen bean plants which had previously been infested with two-spotted mite (Tetranychus urticae (Koch)). Dispersions of the test compounds at each concentration level were applied to individual replicate plots using 1/2 gallon garden sprayers equipped with spray nozzles to apply approximately 250 ml. of test solution to each replicate. The effectiveness of the treatment was determined at intervals following application, by microscopic examination of five leaves selected at random from each replicate plot. The degree of effectiveness for each leaf was rated on a scale of from 1 to 5 with 1 indicating no control in reference to a standard sprayed with a mixture of solution less test compound and 5 indicating complete control. The results obtained from inspection of sample leaves were then averaged to give a numerical indication of the degree of control for each compound tested at the concentration applied.

Bean = assay: Phytotoxicity, bean; settings: 2500 ppm, 10 days
Procedure: (§4) Experiments were also conducted to determine the phytotoxicity of representative enol ester compositions with respect to healthy fresh plants. […] The test plants were sprayed in accordance with the procedure described above for the Mite Foliage Spray Test so as to deliver approximately 100 milliliters of test solution to the leaves of each plant tested. The sprayed plants and controls were set aside for approximately 1 hour to allow the solutions to dry and were then placed in the greenhouse. After 10 days the plants were visually inspected to determine the extent of foliage injury. A rating of 1 indicates no perceptible injury; 5 indicates the plant was dead and ratings of 2, 3 and 4 indicate intermediate degrees of injury based upon the number and extent to which leaves were injured.

Corn = assay: Phytotoxicity, corn; settings: 2500 ppm, 10 days
Procedure: as §4

Tomato = assay: Phytotoxicity, tomato; settings: 2500 ppm, 10 days
Procedure: as §4

Cotton = assay: Phytotoxicity, cotton; settings: 2500 ppm, 10 days
Procedure: as §4

[6] = rating/maximum 40: 100 and 1000 ppm, four species, 10-12 days
[7] = Test I, 500 ppm, 4 days, scale 1 (no control) to 5 (complete control)
[8] = Test I, 500 ppm, 8 days, scale 1 to 5
[9] = Test II, 250 ppm, 3 days, scale 1 to 5
[10] = Test II, 250 ppm, 7 days, scale 1 to 5
[11] = Test II, 500 ppm, 3 days, scale 1 to 5
[12] = Test II, 500 ppm, 7 days, scale 1 to 5
[13] = Test II, 1000 ppm, 3 days, scale 1 to 5
[14] = Test II, 1000 ppm, 7 days, scale 1 to 5
[15] = rating/maximum 15: 100 ppm only, crabgrass omitted
[16] = rating/maximum 20: 100 ppm only, four species

| Compound | Mite Adult rating [1] | Mite Ova rating [2] | Fumigant Toxicity Method 1 [3] | Fumigant Toxicity Method 2 [4] | Herbicide (total preemergence rating) [5, 6] | Average mite control rating, 1st Reading (two-spotted mite; [7]) | Average mite control rating, 2nd Reading (two-spotted mite; [8]) | Average mite control rating, 1st Reading (two-spotted mite; [9]) | Average mite control rating, 2nd Reading (two-spotted mite; [10]) | Average mite control rating, 1st Reading (two-spotted mite; [11]) | Average mite control rating, 2nd Reading (two-spotted mite; [12]) | Average mite control rating, 1st Reading (two-spotted mite; [13]) | Average mite control rating, 2nd Reading (two-spotted mite; [14]) | Phytotoxicity Rating, Bean (Bean) | Phytotoxicity Rating, Corn (Corn) | Phytotoxicity Rating, Tomato (Tomato) | Phytotoxicity Rating, Cotton (Cotton) | Herbicide (total preemergence rating) [5, 15] | Herbicide (total preemergence rating) [5, 16] |
| --- | --- | --- | --- | --- | --- | --- | --- | --- | --- | --- | --- | --- | --- | --- | --- | --- | --- | --- | --- |
| CC(=O)OC1=C(c2c(C)cc(C)cc2C)C(=O)c2ccccc21 [2-(2',4',6'-Trimethylphenyl)-3-(acetoxy)indone] | 5 (100% mortality) | 5 (100% mortality) | 5 (80-100% control) | 5 (80-100% control) | 39/40 | – | – | – | – | – | – | – | – | – | – | – | – | – | – |
| CC(C)(C)C(=O)OC1=C(c2c(Cl)cccc2Cl)C(=O)c2ccccc21 [2-(2',6'-Dichlorophenyl)-3-(pivaloyloxy)indone] | 5 (100% mortality) | 5 (100% mortality) | – | 3 | 30/40 | 3.5 | 4.0 | 2.3 | 3.7 | 3.0 | 3.3 | 3.3 | 4.7 | – | – | – | – | – | – |
| Cc1cc(C)c(C2=C(OC(=O)C3CC4C=CC3C4)c3ccccc3C2=O)c(C)c1 (stereo not drawn) [2-(2',4',6'-Trimethylphenyl)-3-(endo-exonorborn-5-en-2-carbonyloxy)indone] | 5 (100% mortality) | 5 (100% mortality) | 1 | 1 | – | – | – | – | – | – | – | – | – | 1 | 1 | 1 | 2 | 11/15 | – |
| O=C(OC1=C(c2c(Cl)cccc2Cl)C(=O)c2ccccc21)c1cccc(Cl)c1 [3-(3-Chlorobenzoyloxy)-2-(2',6'-dichlorophenyl)indone] | 5 (100% mortality) | 5 (100% mortality) | – | – | 32/40 | 3.0 | 3.0 | – | – | – | – | – | – | – | – | – | – | – | – |
| Cc1cc(C)c(C2=C(OC(=O)c3cccc(Cl)c3)c3ccccc3C2=O)c(C)c1 [3-(3-Chlorobenzoyloxy)-2-(2',4',6'-trimethylphenyl)indone] | 5 (100% mortality) | 5 (100% mortality) | – | – | 29/40 | 1.5 | 2.0 | – | – | – | – | – | – | – | – | – | – | – | – |
| 2-(2'-Methylphenyl)-3-(neodecanoyloxy)indone | 1 | 1 | – | – | – | – | – | – | – | – | – | – | – | 1 | 1 | 1 | 1 | – | 4/20 |
| Cc1cc(C)c(C2=C(OC(=O)C3CCCCC3)c3ccccc3C2=O)c(C)c1 [2-(2',4',6'-Trimethylphenyl)-3-(cyclohexanoyloxy)indone] | 5 (100% mortality) | 5 (100% mortality) | 1 | 1 | 31/40 | – | – | – | – | – | – | – | – | 1 | 1 | 2 | 2 | – | – |
| CCCCC(CC)COC(=O)OC1=C(c2c(C)cc(C)cc2C)C(=O)c2ccccc21 (stereo not drawn) [2-(2',4',6'-Trimethylphenyl)-3-(2-ethylhexyloxycarbonyloxy)indone] | 5 (100% mortality) | 5 (100% mortality) | 1 | 1 | – | – | – | – | – | – | – | – | – | 1 | 2 | 1 | 1 | – | 15/20 |
| CCCCCCCCSC(=O)OC1=C(c2c(C)cc(C)cc2C)C(=O)c2ccccc21 [2-(2',4',6'-Trimethylphenyl)-3-(octylthiocarbonyloxy)indone] | 5 (100% mortality) | 5 (100% mortality) | 1 | 1 | – | – | – | – | – | – | – | – | – | 1 | 1 | 1 | 1 | 11/15 | – |
| CC=CCCCCCCCC(=O)OC1=C(c2c(C)cc(C)cc2C)C(=O)c2ccccc21 [2-(2',4',6'-Trimethylphenyl)-3-(undec-9-enoyloxy)indone] | 5 (100% mortality) | 5 (100% mortality) | 1 | 1 | – | – | – | – | – | – | – | – | – | 2 | 2 | 2 | 1 | – | 19/20 |
| COCC(=O)OC1=C(c2c(C)cc(C)cc2C)C(=O)c2ccccc21 [2-(2',4',6'-Trimethylphenyl)-3-(methoxyacetoxy)indone] | 5 (100% mortality) | 5 (100% mortality) | 1 | 1 | – | – | – | – | – | – | – | – | – | 1 | 1 | 1 | 1 | 15/15 | – |
| O=C(OC1=C(c2c(Cl)cccc2Cl)C(=O)c2ccccc21)c1ccccc1Cl [3-(2-chlorobenzoyloxy)-2-(2',6'-dichlorophenyl)indone] | 5 (100% mortality) | 5 (100% mortality) | – | – | 30/40 | 3.0 | 2.5 | – | – | – | – | – | – | – | – | – | – | – | – |
| Cc1cc(C)c(C2=C(OC(=O)OC(C)C)c3ccccc3C2=O)c(C)c1 [2-(2',4',6'-Trimethylphenyl)-3-(Isopropoxycarbonyloxy)indone] | 5 (100% mortality) | 5 (100% mortality) | 5 (80-100% control) | 3 | – | – | – | – | – | – | – | – | – | – | – | – | – | – | 18/20 |
| 2-(2',5'-Dimethylphenyl)-3-(neodecanoyloxy)indone | 1 | 3 (an approximately 50% mortality) | – | – | – | – | – | – | – | – | – | – | – | 1 | 1 | 1 | 1 | – | 4/20 |
| O=C1c2ccccc2C(=O)C1c1c(Cl)cccc1Cl [Compound B, 2-(2',6'-dichlorophenyl)-1,3-indandione, reference compound] | – | – | – | – | – | 1.5 | 2.0 | 3.7 | 2.3 | 3.0 | 3.3 | 2.0 | 3.3 | – | – | – | – | – | – |
| Cc1cc(C)c(C2=C(OC(=O)c3ccccc3Cl)c3ccccc3C2=O)c(C)c1 [3-(2-Chlorobenzoyloxy)-2-(2',4',6'-trimethylphenyl)indone] | 5 (100% mortality) | 5 (100% mortality) | – | – | 32/40 | 2.5 | – | – | – | – | – | – | – | – | – | – | – | – | – |
